Laboratory results reported in US7115642B2, “Substituted diphenyl isoxazoles, pyrazoles and oxadiazoles useful for treating HCV infection” (priority 2003, dated 2006).
Like-named read-outs stand apart in the source and are kept apart here.

System: HCV replicon (5-2 Luc replicon-comprising cells)
Assay: HCV replicon assay (luciferase)
Format: cell-based, Hepatitis C virus
Conditions: 5-2 Luc replicon cells, luciferase readout, read-out: Replicon IC50
Description: In one embodiment, the inhibitory activity of the compounds can be confirmed in a replicon assay that assesses the ability of a test compound to block or inhibit HCV replication in replicon cells. One example of a suitable replicon assay is the liver cell-line Huh 7-based replicon assay described in Lohmann et al., 1999, Science 285:110–113. A specific example of this replicon assay which utilizes luciferase translation is provided in the Examples Section. In one embodiment of this assay, the amount of test compound that yields a 50% reduction in translation as compared to a control cell (IC50) may be determined.
The inhibitory activity of certain exemplary compounds of the invention was confirmed using an HCV replicon assay. The HCV replicon can include such features as the HCV 5′ untranslated region including the HCV IRES, the HCV 3′ untranslated region, selected HCV genes encoding HCV polypeptides, selectable markers, and a reporter gene such as luciferase, GFP, etc. In the assay, actively dividing 5-2 Luc replicon-comprising cells (obtained from Ralf Bartenschlager; see Lohmann et al., 1999, Science 285:110–113) were seeded at a density of between about 5,000 and 7,500 cells/well onto 96 well plates (about 90 μl of cells per well) and incubated at 37° C. and 5% CO2 for 24 hours. Then, the test compound (in a volume of about 10 μl) was added to the wells at various concentrations and the cells were incubated for an additional 24 hours before luciferase assay. Briefly, the Bright-Glo reagent was diluted 1:1 with PBS and 100 μl of diluted reagent was added to each well. After 5 min of incubation at room temperature, luciferin emission was quantified with a luminometer. In this assay, the amount of test compound that yielded a 50% reduction in luciferase activity (IC50) was determined.
In TABLE 1, a value of “+” indicates an IC50 of 10 μM or less in the specified assay; a value of “−” indicates an IC50 of greater than 10 μM in the specified assay.

| SMILES | IC50 [µM] | IC50 (Hepatitis C virus) [µM] |
| --- | --- | --- |
| CC(C)C(=O)N1CCN(c2cccc(Cl)c2-c2cc(-c3cccc(NC(=O)C(Cl)Cl)c3)on2)CC1 [Compound 644] | < 10 |  |
| O=C(Nc1cccc(-c2cc(-c3c(Cl)cccc3N3CCN(C(=O)C4CCC4)CC3)no2)c1)C(Cl)Cl [Compound 641] | < 10 |  |
| CC(C)(C)OC(=O)N1CCC(CCOc2cccc(Cl)c2-c2cc(-c3cccc(NC(=O)C(Cl)Cl)c3)on2)CC1 [Compound 639] | < 10 |  |
| CS(=O)(=O)N1CCN(c2cccc(Cl)c2-c2cc(-c3cccc(NC(=O)C(Cl)Cl)c3)on2)CC1 [Compound 529] | < 10 |  |
| O=C(NC1CCN(c2cccc(Cl)c2-c2cc(-c3cccc(NC(=O)C(Cl)Cl)c3)on2)CC1)c1ccco1 [Compound 543] | < 10 |  |
| COP(=O)(O)Oc1cccc(Cl)c1-c1cc(-c2cccc(NC(=O)C(Cl)Cl)c2)on1 [Compound 607] | < 10 |  |
| O=C(Nc1cccc(-c2cc(-c3c(Cl)cccc3N3CCN(C(=O)c4cccs4)CC3)no2)c1)C(Cl)Cl [Compound 554] | < 10 |  |
| O=C(Nc1cccc(-c2cc(-c3c(Cl)cccc3N3CCN(C(=O)C4CC4)CC3)no2)c1)C(Cl)Cl [Compound 535] | < 10 |  |
| O=C(Nc1cccc(-c2cc(-c3c(Cl)cccc3N3CCC(NS(=O)(=O)c4ccccc4)CC3)no2)c1)C(Cl)Cl [Compound 547] | < 10 |  |
| CCNC(=O)NC1CCN(c2cccc(Cl)c2-c2cc(-c3cccc(NC(=O)C(Cl)Cl)c3)on2)C1 (stereo not drawn) [Compound 575] | < 10 |  |
| O=C(Nc1cccc(-c2cc(-c3c(Cl)cccc3N3CCN(C(=O)c4ccccc4)CC3)no2)c1)C(Cl)Cl [Compound 642] | < 10 |  |
| CCN(CC)c1cccc(Cl)c1-c1cc(-c2cccc(NC(=O)C(Cl)Cl)c2)on1 [Compound 508] | < 10 |  |
| O=C(Nc1cccc(-c2cc(-c3c(Cl)cccc3N3CCN(C(=O)c4cc(C(F)(F)F)cc(C(F)(F)F)c4)CC3)no2)c1)C(Cl)Cl [Compound 658] | < 10 |  |
| O=C(Nc1cccc(-c2cc(-c3c(Cl)cccc3C(=O)N3CCOCC3)no2)c1)C(Cl)Cl [Compound 683] | < 10 |  |
| O=C(NC1CCN(c2cccc(Cl)c2-c2cc(-c3cccc(NC(=O)C(Cl)Cl)c3)on2)C1)c1ccccn1 (stereo not drawn) [Compound 572] | < 10 |  |
| O=C(Nc1cccc(-c2cc(-c3c(Cl)cccc3N3CCN(c4ccc(Cl)cc4)CC3)no2)c1)C(Cl)Cl [Compound 619] | < 10 |  |
| CN(C)C(=O)Oc1cccc(Cl)c1-c1cc(-c2cccc(NC(=O)C(Cl)Cl)c2)on1 [Compound 601] | < 10 |  |
| O=C(Nc1cccc(-c2cc(-c3ccccc3-c3ccccc3)no2)c1)C(Cl)Cl [Compound 123, 2,2-Dichloro-N-[3-[3-(2-phenyl)phenyl-5-isoxazolyl]phenyl]Acetamide] | < 10 |  |
| CS(=O)(=O)NC1CCN(c2cccc(Cl)c2-c2cc(-c3cccc(NC(=O)C(Cl)Cl)c3)on2)CC1 [Compound 546] | < 10 |  |

| SMILES | IC50 [µM] | IC50 (Hepatitis C virus) [µM] |
| --- | --- | --- |
| O=C(Nc1cccc(-c2cc(-c3c(N4CCN(c5ccccn5)CC4)cccc3C(F)(F)F)no2)c1)C(Cl)Cl [Compound 520] | < 10 |  |
| O=C(Nc1ccccc1)NC1CCN(c2cccc(Cl)c2-c2cc(-c3cccc(NC(=O)C(Cl)Cl)c3)on2)CC1 [Compound 548] | < 10 |  |
| CN(c1cccc(Cl)c1-c1cc(-c2cccc(NC(=O)C(Cl)Cl)c2)on1)C1CCN(C(=O)OC(C)(C)C)CC1 [Compound 580] | < 10 |  |
| CC(=O)N1CCC(Oc2cccc(Cl)c2-c2cc(-c3cccc(NC(=O)C(Cl)Cl)c3)on2)C1 (stereo not drawn) [Compound 595] | < 10 |  |
| CS(=O)(=O)N1CCCC(Oc2cccc(Cl)c2-c2cc(-c3cccc(NC(=O)C(Cl)Cl)c3)on2)C1 (stereo not drawn) [Compound 586] | < 10 |  |
| O=C(Nc1cccc(-c2cc(-c3c(Cl)cccc3OCc3ccccc3)no2)c1)C(Cl)Cl [Compound 670] | < 10 |  |
| O=C(Nc1cccc(-c2cc(-c3c(Cl)cccc3N3CCC(OC(=O)C(Cl)Cl)CC3)no2)c1)C(Cl)Cl [Compound 527] | < 10 |  |
| O=C(Nc1cccc(-c2cc(-c3c(Cl)cccc3N3CCN(C(=O)c4ccno4)CC3)no2)c1)C(Cl)Cl [Compound 530] | < 10 |  |
| CN(C(=O)C(Cl)Cl)c1cccc(-c2cc(-c3c(N)cccc3Cl)no2)c1 [Compound 564] | > 10 |  |
| CC(C)(C)OC(=O)NCC1CCN(c2cccc(Cl)c2-c2cc(-c3cccc(NC(=O)C(Cl)Cl)c3)on2)CC1 [Compound 589] | < 10 |  |
| CC(=O)Nc1cccc(Cl)c1-c1cc(-c2cccc(NC(=O)C(Cl)Cl)c2)on1 [Compound 560] | < 10 |  |
| Nc1cccc(Cl)c1-c1cc(-c2cccc(NC(=O)C(Cl)Cl)c2)on1 [Compound 542] | < 10 |  |
| N#Cc1ccccc1-c1cc(-c2cccc(NC(=O)C(Cl)Cl)c2)on1 [Compound 610] | < 10 |  |
| CN(C(=O)C(Cl)Cl)c1cccc(-c2cc(-c3c(Cl)cccc3Cl)no2)c1 [Compound 57, 2,2-Dichloro-N-[3-[3-(2,6-dichlorophenyl)-5-isoxazolyl]phenyl]-N-methyl Acetamide] | < 10 |  |
| COC(=O)c1ccccc1-c1cc(-c2cccc(NC(=O)C(Cl)Cl)c2)on1 [Compound 115, 2,2-Dichloro-N-[3-[3-(2-carbomethoxy)phenyl-5-isoxazolyl]phenyl]Acetamide] | < 10 |  |
| O=C(Nc1cccc(-c2cc(-c3c(Cl)cccc3N3CCN(c4cccnc4)CC3)no2)c1)C(Cl)Cl [Compound 550] | < 10 |  |
| O=C(Nc1cccc(-c2cc(-c3c(Cl)cccc3N3CCN(C(=O)C4CCCO4)CC3)no2)c1)C(Cl)Cl (stereo not drawn) [Compound 643] | < 10 |  |
| CN(C(=O)C(Cl)Cl)c1cccc(-c2cc(-c3c(Cl)cccc3N=[N+]=[N-])no2)c1 [Compound 563] | < 10 |  |
| O=C(Nc1cccc(-c2cc(-c3c(Cl)cccc3N3CCOCC3)no2)c1)C(Cl)Cl [Compound 500] | < 10 |  |

| SMILES | IC50 [µM] | IC50 (Hepatitis C virus) [µM] |
| --- | --- | --- |
| CNC(=O)c1cccc(Cl)c1-c1cc(-c2cccc(NC(=O)C(Cl)Cl)c2)on1 [Compound 691] | < 10 |  |
| CCNc1cccc(Cl)c1-c1cc(-c2cccc(NC(=O)C(Cl)Cl)c2)on1 [Compound 507] | < 10 |  |
| O=C(Nc1cccc(-c2cc(-c3c(Cl)cccc3N3CCC(Cc4ccccc4)CC3)no2)c1)C(Cl)Cl [Compound 637] | < 10 |  |
| COc1cccc(C(=O)N2CCN(c3cccc(Cl)c3-c3cc(-c4cccc(NC(=O)C(Cl)Cl)c4)on3)CC2)c1 [Compound 659] | < 10 |  |
| CCOC(=O)N1CCN(c2cccc(Cl)c2-c2cc(-c3cccc(NC(=O)C(Cl)Cl)c3)on2)CC1 [Compound 624] | < 10 |  |
| CC(=O)N1CCC(N(C)c2cccc(Cl)c2-c2cc(-c3cccc(NC(=O)C(Cl)Cl)c3)on2)CC1 [Compound 582] | < 10 |  |
| CN1CCN(c2ccccc2-c2cc(-c3cccc(NC(=O)C(Cl)Cl)c3)on2)CC1 [Compound 611] | < 10 |  |
| O=C(Nc1cccc(-c2cc(-c3c(Cl)cccc3N3CCN(S(=O)(=O)c4ccccc4)CC3)no2)c1)C(Cl)Cl [Compound 514] | < 10 |  |
| O=C(Nc1cccc(-c2cc(-c3c(Cl)cccc3N3CCN(Cc4cccnc4)CC3)no2)c1)C(Cl)Cl [Compound 522] | < 10 |  |
| COC(=O)C(NC(=O)c1cccc(Cl)c1-c1cc(-c2cccc(NC(=O)C(Cl)Cl)c2)on1)c1ccccc1 (stereo not drawn) [Compound 693] | > 10 |  |
| O=C(Nc1cccc(-c2cc(-c3c(Cl)cc(OCCN4CCCCC4)cc3Cl)no2)c1)C(Cl)Cl [Compound 125, 2,2-Dichloro-N-[3-[3-[2,6-dichloro-4-(N-piperidinylethylenoxy)phenyl]-5-isoxazolyl]-phenyl]Acetamide] | < 10 |  |
| O=C(Nc1ccc(S(=O)(=O)NN2CCOCC2)c(-c2cc(-c3c(Cl)cccc3Cl)no2)c1)C(Cl)Cl [Compound 107, 2,2-Dichloro-N-[3-[3-(2,6-dichlorophenyl)-5-isoxazolyl]4-(N-morpholinosulfamoyl)-phenyl]Acetamide] |  | < 10 |
| O=C(O)c1cccc(Cl)c1-c1cc(-c2cccc(NC(=O)C(Cl)Cl)c2)on1 [Compound 687] | > 10 |  |
| O=C(Nc1cccc(-c2cc(-c3c(Cl)cccc3OC3CCCNC3)no2)c1)C(Cl)Cl (stereo not drawn) [Compound 571] | < 10 |  |
| O=C(Nc1cccc(-c2cc(-c3c(Cl)cccc3N3CCN(C(=O)C(F)(F)F)CC3)no2)c1)C(Cl)Cl [Compound 566] | < 10 |  |
| CCNC(=O)N1CCC(N(C)c2cccc(Cl)c2-c2cc(-c3cccc(NC(=O)C(Cl)Cl)c3)on2)CC1 [Compound 584] | < 10 |  |
| CC(C)(C)OC(=O)N1CCCC(Oc2cccc(Cl)c2-c2cc(-c3cccc(NC(=O)C(Cl)Cl)c3)on2)C1 (stereo not drawn) [Compound 570] | < 10 |  |
| C[N+](C)(C)CCOc1cccc(Cl)c1-c1cc(-c2cccc(NC(=O)C(Cl)Cl)c2)on1 [Compound 598] | < 10 |  |
| O=C(Nc1cccc(-c2cc(-c3c(Cl)cccc3OCCN3CCOCC3)no2)c1)C(Cl)Cl [Compound 95, 2,2-Dichloro-N-[3-[3-[2-chloro-6-(N-morpholino-2-ethyleneoxy)phenyl]-5isoxazolyl]-phenyl]Acetamide] | < 10 |  |
